{"source": "patent US10526322B2", "about": "“Inhibitors of kidney-type glutaminase, GLS-1” (CORNELL UNIVERSITY, priority 2014, dated 2020)", "key": {"488-GAC and QSY9-GAC": {"molecular_target": "T1, 488-GAC and QSY9-GAC (Mus musculus, UniProt D3Z7P3)", "T1 construct": "(residues 72-603) was cloned into a pET23a vector; His-tag with thrombin cleavage site (N, cleaved yes); made in house", "T1 sequence (D3Z7P3 72-603 isoform D3Z7P3-2)": "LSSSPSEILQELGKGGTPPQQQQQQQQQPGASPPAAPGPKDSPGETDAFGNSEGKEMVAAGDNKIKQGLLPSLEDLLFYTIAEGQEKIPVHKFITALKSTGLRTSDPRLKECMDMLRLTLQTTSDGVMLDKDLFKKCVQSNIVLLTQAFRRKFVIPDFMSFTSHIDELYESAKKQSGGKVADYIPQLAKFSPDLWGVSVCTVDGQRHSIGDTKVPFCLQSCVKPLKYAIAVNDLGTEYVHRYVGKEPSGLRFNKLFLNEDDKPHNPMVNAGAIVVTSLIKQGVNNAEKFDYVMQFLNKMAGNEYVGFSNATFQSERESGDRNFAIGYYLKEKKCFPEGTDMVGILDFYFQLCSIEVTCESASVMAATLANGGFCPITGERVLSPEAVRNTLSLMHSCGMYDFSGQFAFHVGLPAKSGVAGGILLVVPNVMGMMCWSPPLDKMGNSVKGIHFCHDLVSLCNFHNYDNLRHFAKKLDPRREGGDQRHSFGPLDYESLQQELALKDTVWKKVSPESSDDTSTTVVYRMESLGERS", "assay": "FRET assay for GAC tetramer formation", "assay_type": "binding", "conditions": "25 nM 488-GAC and 25 nM QSY9-GAC", "procedure": "Fluorescence experiments were performed using a Varian Cary Eclipse Fluorometer in the counting mode. Excitation and emission wavelengths were 490 and 520 nm, respectively. Experiments were all performed using 1-mL samples with continuous stirring at 20° C. in 50 mM Tris-Acetate, pH 8.5, 0.1 mM ethylenediamine tetraacetic acid (EDTA). For wild-type (WT) GAC titrations in the absence of inorganic phosphate, 25 nM 488-GAC was equilibrated with 25 μL of QSY9-GAC (at varying concentrations) and allowed to equilibrate for 10 minutes, at which point 75 μL of the appropriate concentration of unlabeled WT GAC was added to provide a 10-fold excess over labeled-GAC. To test whether the purified GAC mutants can form oligomers with WT GAC, 200 nM QSY9-GAC (D391K) or 200 nM QSY9-GAC (D391K, K316E, R459E) was added to an equilibrated sample of 20 nM 488-WT GAC. When assaying the effects of BPTES and 968 on oligomer formation, BPTES or 968 was added following equilibration of a sample of 25 nM QSY9-WT GAC and 25 nM 488-WT GAC. Both BPTES and 968 were prepared in DMSO, and appropriate dilutions were made so that less than 2% (v/v) DMSO was added to an experimental sample."}, "GAC": {"molecular_target": "T2, GAC (Mus musculus, UniProt D3Z7P3)", "T2 construct": "(residues 72-603) was cloned into a pET23a vector; His-tag with thrombin cleavage site (N, cleaved yes); made in house", "T2 sequence (D3Z7P3 72-603 isoform D3Z7P3-2)": "T1 sequence (D3Z7P3 72-603 isoform D3Z7P3-2)", "assay": "Real-time GAC enzyme activity assay coupled to glutamate dehydrogenase (NADH fluorescence)", "assay_type": "biochemical", "conditions": "for concentration inhibiting the GAC isoform compared with parent compound 968: in vitro inhibition, FIG. 9 / FIG. 11", "procedure": "A plasmid encoding the mouse kidney-type glutaminase isoform 2 (GAC, GenBank Accession No. NP_001106854.1, which is hereby incorporated by reference in its entirety) (residues 72-603) was cloned into a pET23a vector containing an N-terminal histidine (His)-tag and thrombin cleavage site. The expressed protein was purified using Co^2+ affinity beads (Clontech), followed by His-tag cleavage with human thrombin (Haemetologic Technologies) overnight at 4° C., and subsequently purified by anion exchange (GE healthcare) and gel filtration chromatography. Purified GAC was stored in a high salt-containing buffer (20 mM Tris-HCl pH 8.5, 500 mM NaCl, 1 mM NaN3) at −80° C., following snap freezing in liquid N2 for long term use. Labeling recombinant GAC with small molecule probes was performed by exchanging 1.5 mg of enzyme into 50 mM HEPES, pH 7.2, and 100 mM NaCl (labeling buffer), using a PD10 desalting column (GE healthcare). The enzyme was then incubated with 50 μM (5-fold excess of enzyme) of either AlexaFluor 488 succinimidyl ester or QSY9 succinimidyl ester (Molecular Probes) for 1 hour at 4° C. After 1 hour, the labeling reaction was quenched with 150 mM Tris-HCl, pH 8.5, and unreacted probe was separated from labeled-enzyme using a PD10 desalting column, eluting labeled-GAC back into the high salt-containing buffer. The stoichiometry of labeling was determined using the probe manufacturer's reported molar absorptivity values and instructions. Briefly, the concentration of GAC was determined by first correcting absorbance at 280 nm (Abs280) for each probe, using the reported correction values (0.11 for AlexaFluor 488 and 0.23 for QSY-9) and their absorbance values at their absorbance maxima (495 nm and 562 nm, respectively). The corrected Abs280 was used along with the experimentally determined molar absorptivity of GAC (ε280=38,850 M−1 cm−1). AlexaFluor 488 and QSY-9 probes were quantified using their respective absorbance maxima and the manufacturer's reported molar absorptivity values (ε495=71,000 M−1 cm−1 and ε562=85,000 M−1 cm−1).\nReal-time fluorescence monitoring of 968 binding and GAC activity through production of NADH was performed on a Varian Cary Eclipse Fluorometer, whereas small molecule inhibition and binding titrations were performed in a 96-well format in a Tecan Saphire absorbance and fluorescence plate reader. Samples for monitoring real-time binding of 968 to 488-GAC were prepared by adding 10 μL of varying concentrations of 968 prepared in DMSO to an equilibrated 1 mL sample of 10 nM 488-GAC, while observing 488 fluorescence (490 nm excitation/520 nm emission). Similarly, this method was replicated for monitoring real-time binding of 968 to mutant forms of GAC, namely 488-labeled GAC (GD391K) and 488-GAC (D391K, K316E, R459E). Real-time activity assays monitoring 968 binding and NADH production were prepared in 1 mL samples, where 10 units of glutamate dehydrogenase (Sigma) and 2 mM NAD+ (Sigma) were prepared in 50 mM Tris-Acetate, pH 8.5, 0.1 mM EDTA and equilibrated at 20° C. WT GAC (10 nM) was added and allowed to equilibrate 2 minutes before monitoring the fluorescence emission of 488-GAC (490 nm excitation, 520 nm emission) and NADH (340 nm excitation, 490 nm emission). Appropriate dilutions of 968 or BPTES prepared in DMSO were introduced after 30 seconds and allowed to equilibrate for 2 minutes before a 180 μL solution of K2HPO4 and glutamine was added to make a final concentration of 50 mM K2HPO4 and 20 mM glutamine, to initiate GAC activation. The activity of GAC was measured in a coupled assay, by monitoring the NADH produced by glutamate dehydrogenase, which converts the product of the glutaminase-catalyzed reaction, glutamate, to α-ketoglutarate and ammonia by reducing NAD+ to NADH. […]"}, "[1]": {"molecular_target": "T3, 488-GAC (mouse kidney-type glutaminase isoform 2, GAC) (Mus musculus, UniProt D3Z7P3)", "T3 construct": "(residues 72-603) was cloned into a pET23a vector; His-tag with thrombin cleavage site (N, cleaved yes); made in house", "T3 sequence (D3Z7P3 72-603 isoform D3Z7P3-2)": "T1 sequence (D3Z7P3 72-603 isoform D3Z7P3-2)", "assay": "Real-time binding assay, quenching of 488-GAC fluorescence", "conditions": "10 nM 488-GAC, 10 μM BPTES", "procedure": "A plasmid encoding the mouse kidney-type glutaminase isoform 2 (GAC, GenBank Accession No. NP_001106854.1, which is hereby incorporated by reference in its entirety) (residues 72-603) was cloned into a pET23a vector containing an N-terminal histidine (His)-tag and thrombin cleavage site. The expressed protein was purified using Co^2+ affinity beads (Clontech), followed by His-tag cleavage with human thrombin (Haemetologic Technologies) overnight at 4° C., and subsequently purified by anion exchange (GE healthcare) and gel filtration chromatography. […] The stoichiometry of labeling was determined using the probe manufacturer's reported molar absorptivity values and instructions. Briefly, the concentration of GAC was determined by first correcting absorbance at 280 nm (Abs280) for each probe, using the reported correction values (0.11 for AlexaFluor 488 and 0.23 for QSY-9) and their absorbance values at their absorbance maxima (495 nm and 562 nm, respectively). The corrected Abs280 was used along with the experimentally determined molar absorptivity of GAC (ε280=38,850 M−1 cm−1). AlexaFluor 488 and QSY-9 probes were quantified using their respective absorbance maxima and the manufacturer's reported molar absorptivity values (ε495=71,000 M−1 cm−1 and ε562=85,000 M−1 cm−1). […]"}}, "data": [{"compound": "O=C(Cc1ccccc1)Nc1nnc(CCSCCc2nnc(NC(=O)Cc3ccccc3)s2)s1", "note": "[BPTES]", "values": [{"measurement": "effect on GAC tetramer formation (488-GAC emission in mixture with QSY9-GAC)", "setting": "488-GAC and QSY9-GAC", "value": "immediate quenching"}, {"measurement": "inhibition of GAC activity", "setting": "GAC; 10 nM 488-GAC, 10 μM BPTES", "value": "strongly inhibits"}, {"measurement": "effect on 488-GAC fluorescence", "setting": "[1]", "value": "does not directly affect"}]}, {"compound": "CC1(C)CC(=O)C2=C(C1)c1cc(-c3ccccc3)ccc1NC2c1ccc(-c2ccccc2)cc1", "note": "(centres unmarked) [SU-15]", "values": [{"measurement": "concentration inhibiting the GAC isoform compared with parent compound 968", "setting": "GAC", "value": "lower concentration than the parent compound, 968"}]}, {"compound": "CN(C)c1ccc(CNc2cccc3ccccc23)cc1Br", "note": "[SU-20]", "values": [{"measurement": "concentration inhibiting the GAC isoform compared with parent compound 968", "setting": "GAC", "value": "lower concentration than the parent compound, 968"}]}, {"compound": "CN(C)c1ccc(C2Nc3ccc4cc5ccccc5cc4c3C3=C2C(=O)CC(C)(C)C3)cc1Br", "note": "(centres unmarked) [SU-14]", "values": [{"measurement": "concentration inhibiting the GAC isoform compared with parent compound 968", "setting": "GAC", "value": "lower concentration than the parent compound, 968"}]}, {"compound": "CN(C)c1ccc(C2Nc3c(ccc4ccccc34)C3=C2C(=O)CC(C)(C)C3)cc1Br", "note": "(centres unmarked) [SU-1]", "values": [{"measurement": "concentration inhibiting the GAC isoform compared with parent compound 968", "setting": "GAC", "value": "lower concentration than the parent compound, 968"}]}, {"compound": "[O-][NH2+]c1cc(CNc2ccc3ccccc3c2)ccc1N1CCCC1", "note": "[SU-29]", "values": [{"measurement": "concentration inhibiting the GAC isoform compared with parent compound 968", "setting": "GAC", "value": "lower concentration than the parent compound, 968"}]}, {"compound": "CCN(CC)c1ccc(CNc2ccc3ccccc3c2)cc1[NH2+][O-]", "note": "[SU-31]", "values": [{"measurement": "concentration inhibiting the GAC isoform compared with parent compound 968", "setting": "GAC", "value": "lower concentration than the parent compound, 968"}]}, {"compound": "CC1(C)CC(=O)C2=C(C1)c1c(ccc3cc4ccccc4cc13)NC2c1ccc(C2(C(F)(F)F)N=N2)cc1", "note": "(centres unmarked) [SU-24]", "values": [{"measurement": "concentration inhibiting the GAC isoform compared with parent compound 968", "setting": "GAC", "value": "lower concentration than the parent compound, 968"}]}, {"compound": "CN(C)c1ccc(C2Nc3ccc4ccccc4c3C3=C2C(=O)CC(c2ccccc2)C3)cc1Br", "note": "(centres unmarked) [SU-10]", "values": [{"measurement": "concentration inhibiting the GAC isoform compared with parent compound 968", "setting": "GAC", "value": "lower concentration than the parent compound, 968"}]}]}
